From ChEMBL document CHEMBL1138200, “Dihydropyrrolopyrazole transforming growth factor-beta type I receptor kinase domain inhibitors: a novel benzimidazole series with selectivity versus transforming growth factor-beta type II receptor kinase and mixed lineage kinase-7” (J Med Chem, 2006)

Key:
TGF-beta receptor type-2 = TGF-beta receptor type-2 (Homo sapiens, UniProt P37173); assay: Inhibition of recombinant human TGFbeta R2 expressed in Sf9 cells
TGF-beta receptor type-1 [1] = target: T1, TGF-beta receptor type-1 (Homo sapiens, UniProt P36897); assay: Inhibition of recombinant human TGFbeta R1 expressed in Sf9 cells
T1 sequence (P36897 whole entry): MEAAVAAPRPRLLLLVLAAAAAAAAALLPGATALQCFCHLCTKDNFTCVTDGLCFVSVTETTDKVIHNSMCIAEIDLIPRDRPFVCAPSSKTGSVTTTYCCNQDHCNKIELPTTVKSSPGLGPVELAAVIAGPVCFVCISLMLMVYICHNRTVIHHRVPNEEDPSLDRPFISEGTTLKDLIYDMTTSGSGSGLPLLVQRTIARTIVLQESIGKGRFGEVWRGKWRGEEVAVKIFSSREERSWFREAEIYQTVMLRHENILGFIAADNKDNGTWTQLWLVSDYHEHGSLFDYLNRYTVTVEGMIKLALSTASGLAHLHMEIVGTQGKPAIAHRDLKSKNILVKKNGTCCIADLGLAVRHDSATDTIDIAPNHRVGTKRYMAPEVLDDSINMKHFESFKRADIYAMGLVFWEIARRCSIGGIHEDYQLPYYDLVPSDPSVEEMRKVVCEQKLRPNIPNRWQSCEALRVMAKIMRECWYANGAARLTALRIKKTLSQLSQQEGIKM

[2] = target: Mitogen-activated protein kinase kinase kinase 20 (Homo sapiens, UniProt Q9NYL2); assay: Inhibition of MLK7
TGF-beta receptor type-1 [3] = target: T1, TGF-beta receptor type-1; assay: Inhibition of TGFbeta R1 induced transcriptional activation of p3TP-Lux in mink Mv1Lu lung cells; assay type: functional, cell-based, Mustela
[4] = Inhibitory activity against TGF-beta-stimulated proliferation in NIH3T3 cells; assay type: functional, cell-based; conditions: Mus musculus
Cytochrome P450 2D6 = Cytochrome P450 2D6 (Homo sapiens, UniProt P10635); assay: Inhibition of cytochrome P450 2D6; assay type: ADME
Chain of Cytochrome P450 2D6 (P10635 whole entry): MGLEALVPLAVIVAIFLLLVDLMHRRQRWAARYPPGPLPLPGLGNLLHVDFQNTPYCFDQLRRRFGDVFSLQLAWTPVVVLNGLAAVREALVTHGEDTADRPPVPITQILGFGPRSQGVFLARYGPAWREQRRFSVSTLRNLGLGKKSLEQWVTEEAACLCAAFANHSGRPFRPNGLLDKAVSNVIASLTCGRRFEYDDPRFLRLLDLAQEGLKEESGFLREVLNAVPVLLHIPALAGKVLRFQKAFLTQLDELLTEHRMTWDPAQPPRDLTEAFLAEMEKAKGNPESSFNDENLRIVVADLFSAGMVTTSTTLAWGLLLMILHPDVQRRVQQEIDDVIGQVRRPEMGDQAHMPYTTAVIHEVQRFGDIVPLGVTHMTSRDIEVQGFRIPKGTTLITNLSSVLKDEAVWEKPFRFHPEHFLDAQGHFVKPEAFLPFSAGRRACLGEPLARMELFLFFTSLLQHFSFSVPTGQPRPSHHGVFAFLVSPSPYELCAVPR

Chain of TGF-beta receptor type-2 (P37173 whole entry): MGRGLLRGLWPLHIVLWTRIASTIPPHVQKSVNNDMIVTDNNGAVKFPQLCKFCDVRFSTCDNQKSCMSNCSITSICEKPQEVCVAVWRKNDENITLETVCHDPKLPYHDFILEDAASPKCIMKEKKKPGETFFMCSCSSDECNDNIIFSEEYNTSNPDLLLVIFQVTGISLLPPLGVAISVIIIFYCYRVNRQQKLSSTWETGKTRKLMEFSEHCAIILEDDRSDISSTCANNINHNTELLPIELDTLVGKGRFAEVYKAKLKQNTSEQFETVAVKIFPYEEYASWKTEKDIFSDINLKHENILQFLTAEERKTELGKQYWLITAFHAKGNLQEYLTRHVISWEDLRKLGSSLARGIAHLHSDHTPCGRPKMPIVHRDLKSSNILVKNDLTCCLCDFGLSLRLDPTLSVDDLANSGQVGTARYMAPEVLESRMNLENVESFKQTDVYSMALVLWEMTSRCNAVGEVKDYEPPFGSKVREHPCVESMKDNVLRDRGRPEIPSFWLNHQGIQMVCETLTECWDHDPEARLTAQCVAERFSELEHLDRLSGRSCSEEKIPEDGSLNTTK
Chain of Mitogen-activated protein kinase kinase kinase 20 (Q9NYL2 whole entry): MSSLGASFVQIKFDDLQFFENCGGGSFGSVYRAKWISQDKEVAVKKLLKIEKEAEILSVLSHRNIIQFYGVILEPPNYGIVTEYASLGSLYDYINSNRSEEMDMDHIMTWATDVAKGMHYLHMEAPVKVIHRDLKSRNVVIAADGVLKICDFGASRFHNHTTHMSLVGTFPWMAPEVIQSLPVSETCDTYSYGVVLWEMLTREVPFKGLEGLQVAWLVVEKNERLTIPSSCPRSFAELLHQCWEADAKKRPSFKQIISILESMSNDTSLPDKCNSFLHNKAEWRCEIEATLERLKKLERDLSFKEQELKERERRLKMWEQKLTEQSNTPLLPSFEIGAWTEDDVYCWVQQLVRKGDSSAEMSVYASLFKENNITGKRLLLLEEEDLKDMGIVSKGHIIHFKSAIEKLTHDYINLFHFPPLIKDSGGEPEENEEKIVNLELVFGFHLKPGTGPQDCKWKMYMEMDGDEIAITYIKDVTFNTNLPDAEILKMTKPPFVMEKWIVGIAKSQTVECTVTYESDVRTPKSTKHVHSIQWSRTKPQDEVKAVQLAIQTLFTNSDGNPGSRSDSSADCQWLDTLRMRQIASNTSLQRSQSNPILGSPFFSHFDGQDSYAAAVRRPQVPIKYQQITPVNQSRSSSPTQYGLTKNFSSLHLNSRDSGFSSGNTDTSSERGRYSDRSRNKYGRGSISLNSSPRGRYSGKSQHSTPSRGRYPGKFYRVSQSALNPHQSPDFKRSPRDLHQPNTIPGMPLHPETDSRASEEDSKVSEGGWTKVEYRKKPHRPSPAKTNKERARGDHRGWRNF

Row | SMILES | IC50 (TGF-beta receptor type-2) [nM] | IC50 (TGF-beta receptor type-1 [1]) [nM] | IC50 [2] [nM] | IC50 (TGF-beta receptor type-1 [3]) [nM] | IC50 [4] [nM] | IC50 (Cytochrome P450 2D6) [nM]
1 | c1ccc(-c2nn3c(c2-c2ccc4[nH]cnc4c2)CCC3)nc1 | 8730 | – | – | – | – | –
2 | Cc1cccc(-c2nn3c(c2-c2ccc4ncn(CCCN(C)C)c4c2)CCC3)n1 | > 20000 | 85 | > 20000 | 53 | 139 | –
3 | Cc1cccc(-c2nn3c(c2-c2ccc4ncn(CCCN5CCCC5)c4c2)CCC3)n1 | > 20000 | 74 | > 20000 | 117 | 249 | –
4 | c1ccc(-c2nn3c(c2-c2ccc4c(c2)ncn4CCCOC2CCCCO2)CCC3)nc1 (stereo not drawn) | > 20000 | 6580 | > 20000 | 5890 | 4700 | –
5 | Cc1cccc(-c2nn3c(c2-c2ccc4ncn(CCCN5CCCCC5)c4c2)CCC3)n1 | > 20000 | 155 | > 20000 | 51 | 150 | –
6 | CN(C)CCCn1cnc2ccc(-c3c(-c4ccccn4)nn4c3CCC4)cc21 | > 20000 | 398 | 15900 | 104 | 1000 | –
7 | Cc1cccc(-c2nn3c(c2-c2ccc4ncn(CCCN5CCOCC5)c4c2)CCC3)n1 | 19800 | 69 | 8480 | 186 | 277 | –
8 | c1ccc(-c2n[nH]cc2-c2ccnc3ccccc23)nc1 | 400 | – | 1400 | – | 81 | –
9 | OCCCn1cnc2ccc(-c3c(-c4ccccn4)nn4c3CCC4)cc21 | 352 | 79 | 708 | 79 | 371 | –
10 | Cn1cnc2cc(-c3c(-c4ccccn4)nn4c3CCC4)ccc21 | 19600 | 4740 | > 20000 | 1370 | 1620 | –
11 | c1ccc(-c2nn3c(c2-c2ccc4ncn(CCCN5CCCC5)c4c2)CCC3)nc1 | 10800 | 246 | 4880 | 226 | 854 | –
12 | Cn1ccc2cc(-c3c(-c4ccccn4)nn4c3CCC4)ccc21 | > 20000 | 12200 | 16600 | – | – | –
13 | CCN(CC)CCCn1cnc2ccc(-c3c(-c4cccc(C)n4)nn4c3CCC4)cc21 | > 20000 | 122 | > 20000 | 100 | 274 | –
14 | Cc1cccc(-c2nn3c(c2-c2ccc4c(c2)ncn4CCCOC2CCCCO2)CCC3)n1 (stereo not drawn) | 14500 | 1830 | > 20000 | 2430 | – | –
15 | Cn1cnc2ccc(-c3c(-c4ccccn4)nn4c3CCC4)cc21 | 395 | 75 | 1310 | 8 | 32 | –
16 | Cc1cccc(-c2nn3c(c2-c2ccc4c(ccn4C)c2)CCC3)n1 | > 20000 | 4100 | > 20000 | – | – | –
17 | Cc1cccc(-c2nn3c(c2-c2ccc4ncn(CCCO)c4c2)CCC3)n1 | 690 | 41 | 2810 | 78 | 371 | –
18 | c1ccc(-c2nn3c(c2-c2ccc4[nH]ccc4c2)CCC3)nc1 | > 20000 | > 20000 | > 20000 | – | – | –
19 | Cc1cccc(-c2nn3c(c2-c2ccc4ncn(C)c4c2)CCC3)n1 | 668 | 22 | 2340 | 29 | 96 | –
20 | Cc1cccc(-c2nn3c(c2-c2ccc4nc[nH]c4c2)CCC3)n1 | 1300 | 47 | 15900 | 15 | 42 | 27000
